From patent publication US20070232577A1, “Synthetic pentacyclic triterpenoids and derivatives of betulinic acid and betulin” (Advanced Life Sciences, Inc., priority 2006, published 2007) come the findings set out here.

In brackets after ≈: the same amount, converted by molar mass.

Series [1] has as its system MCF-7 (breast carcinoma). Put plainly: MTS cell viability assay, MCF-7. Type of series: cell-based. As to conditions: Homo sapiens, MCF7, 72 h. The method, then: (§1) All treatments were performed in triplicate. […] Cells were incubated at 37° C. for 72 h.
In general terms: Formazan colour is commonly taken as a measure of viable cells.

For series [2], the system named is HT-29 (colon carcinoma). Put plainly: MTS cell viability assay, HT-29. It counts as cell-based. The following applies: Homo sapiens, 72 h. The method, then:
as §1

Series [3] concerns Daoy. The series is described as follows: Caspase activation assay, Daoy. It counts as cell-based. As for the experimental part:
All treatments were performed in duplicate. […] Cells were incubated at 37° C. for 8 h. Caspase assay reagent (per 96-well plate) was prepared according to manufacturer's instructions (Homogeneous Caspases Assay, fluorometric, Roche) by combining 6.3 mL Incubation Buffer with 0.7 mL of Substrate Stock Solution. Caspase assay reagent (70 μL) was added to each well; the plate was gently shaken by hand for 15-20 seconds and incubated at 37° C. for 4 h.
Fluorescent emission was measured at 535 nm on a plate reader using the “homogeneous caspase” program (excitation Wavelength=490 nm, emission wavelength=535 nm). Duplicate wells for each treatment were averaged following background (no cells) subtraction (emission 535 nm value from all experimental emission 535 nm values) for each drug concentration.
DMSO treatment represented baseline caspase activation in the absence of drug. The percent changes in caspase activity were plotted on the y-axis for each drug treatment.

Series [4] deals with SK-MEL-2 (melanoma). The series is described as follows: MTS cell viability assay, SK-MEL-2. As to conditions: Homo sapiens, SK-MEL-2, 72 h, read-out: IC50 SK-MEL-2.
In series [5] the test system is OVCAR-3 (ovarian carcinoma). Put plainly: MTS cell viability assay, OVCAR-3. It counts as cell-based. As to conditions: Homo sapiens, 72 h. As for the experimental part:
as §1

Series [6] has as its system A-375 (melanoma). Put plainly: MTS cell viability assay, A-375. Type of series: cell-based. As to conditions: Homo sapiens, 72 h. The method, then: as §1
Series [7] relates to LN-229 (glioblastoma). The series is described as follows: MTS cell viability assay, LN-229. Type of series: cell-based. The following applies: Homo sapiens, 72 h. The method, then:
as §1

In series [8] the test system is Daoy (glioblastoma). Put plainly: MTS cell viability assay, Daoy.
Procedure: Cells were plated, the evening before treatment, for each treatment on 96-well plates (1×10^4 cells/well) in 100 μL volume per well. Drug solutions were prepared by diluting each test compound in DSMO (10 mM) with the appropriate cell growth media for each individual cell line, or in “Universal Media” if several cell lines were to be assayed in parallel, immediately prior to cell treatment. Universal Media consisted of 5 mL sodium pyruvate (100×liquid stock, CellGro), 5 mL glucose (100×, 45% liquid stock, CellGro), 5 mL Penicillin/Streptomycin (100×liquid stock, CellGro), 10 mL sodium bicarbonate (50×liquid stock, CellGro), 25 mL Fetal Calf Serum, 1.25 mL insulin (4 mg/mL, Gibco) and 449 mL RPMI media with 2 mM glutamine for a total volume of 500 mL. Cells were treated by aspirating media from each well and adding 80 μL of each drug solution to the attached cells. All treatments were performed in triplicate. Growth media (80 μL) were added to 3 blank wells (no cells) to measure background from the growth media Growth media alone (no DMSO or test compond) was added to 2 wells containing cells to measure the baseline MTS activity and vehicle (DMSO) control solutions were also included to monitor basal toxicity from DMSO. Cells were incubated at 37° C. for 72 h. MTS reagent (per 96-well plate) were prepared by combining 2 mL of MTS working solution (Cell Titer AQueous Non-Radioactive Cell Proliferation Assay, Promega, cat#G1112), 100 μL of 0.92 mg/mL phenazine methosulfate/Dulbecco's PBS and 2.1 mL growth media. MTS reagent (40 μL) were added to each well and incubated at 37° C. for 1.5 to 4 h. Plates were gently shaken by hand until solution in each well appeared homogenous. Absorbances at 490 nm were measured on a plate reader at multiple time points following the addition of MTS reagent for each plate. Triplicate absorbance (490 nm) measurements were averaged following background (no cell) subtraction for each drug concentration. Percent Cell Viability was calculated for each drug concentration using the following equation: {[Absorbances(drug treated)]/[Absorbances(DMSO treated)]}×100%
Percent viability (y-axis) was plotted against drug concentration (x-axis) and the resulting graph was used to determine the 50% inhibitory concentration (IC50) for each drug.

For `C=C(C)[C@@H]1CC[C@]2(COC(=O)CBr)CC[C@]3(C)[C@H](CC[C@@H]4[C@@]5(C)CC[C@H](O)C(C)(C)[C@@H]5CC[C@]43C)[C@@H]12` [Compound 13, ((1R,3aS,5aR,5bR,7aR,9S,11aR,11bR,13aR,13b R)-9-hydroxy-5a,5b,8,8,11a-pentamethyl-1-(prop-1-en-2-yl)icosahydro-1H-cyclopenta[a]chrysen-3a-yl)methyl 2-bromoacetate], the 50% inhibitory concentration (IC50) (in general, the concentration that inhibits the measured activity by half) is 45 mg/L (≈ 79.8 µM) in series [1]; 10 mg/L (≈ 17.7 µM) in series [2]; 33 mg/L (≈ 58.5 µM) in series [4]; 6 mg/L (≈ 10.6 µM) in series [5]; 29 mg/L (≈ 51.4 µM) in series [6]; 6 mg/L (≈ 10.6 µM) in series [7]. In addition, the IC50 in series [8] (Homo sapiens, Daoy, 72 h, read-out: IC50 Daoy) worked out at 1.4 mg/L (≈ 2.48 µM). In series [3] (Daoy, percent change versus DMSO), the “caspase activation in Daoy” value is on record as “approx. 200%”. For the same compound, the “selectivity of apoptosis activation, Daoy versus SK-MEL-2 (in words)” value in series [3] (caspase assay, Daoy in preference to SK-MEL-2) was “selectively activate apoptosis in Daoy in preference to SK-MEL-2”. Moreover, in series [8] (MTS assay, Daoy versus other cell lines), the “selectivity of cytotoxicity for Daoy (in words)” value is reported as “robust cytotoxic activity in Daoy but not in SK-MEL-2”.
